The record followed here is patent US20140128385A1 (NOVARTIS AG, priority 2011, published 2014).

What is called IC50 is the concentration at which inhibition is half-maximal. Higher therefore signals a need for much substance.

Where a name gives a salt, the structure may show the parent alone. Bounds are passed on as bounds.

In the assay the target is T1, BACE-2 (Homo sapiens, UniProt Q9Y5Z0).
T1 construct: Recombinant BACE-2 (extracellular domain, expressed in baculovirus and purified using standard methods); made in house
T1 sequence (Q9Y5Z0 63-473 limits assumed): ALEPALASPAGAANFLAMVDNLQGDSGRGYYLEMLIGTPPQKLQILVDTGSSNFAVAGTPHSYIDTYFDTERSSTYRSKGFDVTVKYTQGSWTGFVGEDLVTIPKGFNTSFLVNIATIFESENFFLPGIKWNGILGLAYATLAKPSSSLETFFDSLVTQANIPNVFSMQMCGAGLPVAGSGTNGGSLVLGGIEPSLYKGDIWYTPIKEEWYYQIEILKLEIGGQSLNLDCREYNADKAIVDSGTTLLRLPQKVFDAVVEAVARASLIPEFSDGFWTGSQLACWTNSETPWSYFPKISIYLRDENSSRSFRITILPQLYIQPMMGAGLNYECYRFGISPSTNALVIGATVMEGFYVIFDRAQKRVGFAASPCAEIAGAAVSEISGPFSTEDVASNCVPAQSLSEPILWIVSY
In words: assay for inhibition of BACE-2. The assay is classed as biochemical.
In turn, `CC1(c2cccc(NC(=O)c3ccco3)c2)COCC(N)=N1` (centres unmarked) [Example 1, Furan-2-carboxylic acid [3-(5-amino-3-methyl-3,6-dihydro-2H-[1,4]oxazin-3-yl)-phenyl]-amide hydrochloride] came in with an IC50 of 0.061 µM.

Take `CCOc1cnc(C(=O)Nc2ccc(F)c([C@]3(C(F)F)COCC(N)=N3)c2)cn1` [Example 171, 5-Ethoxy-pyrazine-2-carboxylic acid [3-((R)-5-amino-3-difluoromethyl-3,6-dihydro-2H-[1,4]oxazin-3-yl)-4-fluoro-phenyl]-amide]: the IC50 is 0.2 µM. As for `NC1=N[C@@](c2cc(NC(=O)c3cnc(O)cn3)ccc2F)(C(F)F)COC1` [Example 145], the figure is 0.697 µM; as for `NC1=N[C@@](c2cc(NC(=O)c3cnc(OCC(F)F)cn3)ccc2F)(C(F)F)COC1` [Example 123], 1.83 µM; as for `COc1cnc(C(=O)Nc2ccc(F)c([C@]3(C(F)F)COCC(N)=N3)c2)c(OC)c1` [Example 179, 3,5-Dimethoxy-pyridine-2-carboxylic acid [3-((R)-5-amino-3-difluoromethyl-3,6-dihydro-2H-[1,4]oxazin-3-yl)-4-fluoro-phenyl]-amide hydrochloride], 0.27 µM. As for `CC1(C)OCC(c2cc(NC(=O)c3ccc(C#N)cn3)ccc2F)(C(F)F)N=C1N` (centres unmarked) [Example 79, 5-Cyano-pyridine-2-carboxylic acid[3-(5-amino-3-difluoromethyl-6,6-dimethyl-3,6-dihydro-2H-[1,4]oxazin-3-yl)-4-fluoro-phenyl]-amide], the figure is 0.316 µM; as for `[2H]C([2H])([2H])Oc1cnc(C(=O)Nc2ccc(F)c([C@]3(C(F)F)COCC(N)=N3)c2)c(N)n1` [Example 217], 0.153 µM. As to `Cc1cnc(C(=O)Nc2ccc(F)c([C@]3(C(F)F)COCC(N)=N3)c2)s1` [Example 149], the IC50 was determined as 0.476 µM. In turn, `NC1=NC(CF)(c2cccc(NC(=O)c3ccc(Br)cn3)n2)COC1` (centres unmarked) [Example 260] came in with an IC50 of 1.66 µM. `CC#CCOc1cnc(C(=O)Nc2ccc(F)c([C@]3(C(F)F)COCC(N)=N3)c2)cn1` [Example 164, 5-But-2-ynyloxy-pyrazine-2-carboxylic acid [3-((R)-5-amino-3-difluoromethyl-3,6-dihydro-2H-[1,4]oxazin-3-yl)-4-fluoro-phenyl]-amide hydrochloride] showed an IC50 of 0.076 µM.

In turn, `Cc1cc(Br)cnc1C(=O)Nc1ccc(F)c([C@]2(CF)COCC(N)=N2)c1` [Example 91] had an IC50 of 0.006 µM.

As to `NC1=N[C@@](c2cc(NC(=O)c3cc4cccn4cn3)ccc2F)(C(F)F)COC1` [Example 163, Pyrrolo[1,2-c]pyrimidine-3-carboxylic acid [3-((R)-5-amino-3-difluoromethyl-3,6-dihydro-2H-[1,4]oxazin-3-yl)-4-fluoro-phenyl]-amide], the IC50 came out at 0.405 µM. `C#CCOc1cnc(C(=O)Nc2ccc(F)c([C@]3(C)CO[C@@](C)(C(F)(F)F)C(N)=N3)c2)c(N)n1` [Example 239] gave an IC50 of 0.015 µM. The molecule `NC1=NC(c2cccc(NC(=O)c3cc(Br)co3)c2)(C(F)F)COC1` (centres unmarked) [Example 102] showed an IC50 of 0.24 µM.

In turn, `COc1cnc(C(=O)Nc2ccc(F)c([C@]3(C(F)F)COCC(N)=N3)c2)c(N)n1` [Example 175, 3-Amino-5-methoxy-pyrazine-2-carboxylic acid [3-((R)-5-amino-3-difluoromethyl-3,6-dihydro-2H-[1,4]oxazin-3-yl)-4-fluoro-phenyl]-amide hydrochloride] registered an IC50 of 0.111 µM. Regarding `Cc1cc(C#N)cnc1C(=O)Nc1ccc(F)c(C2(C)COC(CF)(CF)C(N)=N2)c1` (racemic) [Example 251, 5-Cyano-3-methyl-pyridine-2-carboxylic acid [3-(5-amino-6,6-bis-fluoromethyl-3-methyl-3,6-dihydro-2H-[1,4]oxazin-3-yl)-4-fluoro-phenyl]-amide], 0.041 µM corresponded to half-maximal inhibition (IC50). In turn, `Cn1ccnc1C(=O)Nc1ccc(F)c([C@]2(C(F)F)COCC(N)=N2)c1` [Example 133] came in with an IC50 of 0.573 µM. In turn, `Cc1cc(Cl)cnc1C(=O)Nc1ccc(F)c(C2(C)COC(CF)(CF)C(N)=N2)c1` (centres unmarked) [Example 255, 5-Chloro-3-methyl-pyridine-2-carboxylic acid [3-(5-amino-6,6-bis-fluoromethyl-3-methyl-3,6-dihydro-2H-[1,4]oxazin-3-yl)-4-fluoro-phenyl]-amide] returned an IC50 of 0.009 µM. Regarding `COc1ccc(C(=O)Nc2cccc([C@]3(C)COCC(N)=N3)c2)nc1` [Example 30, 5-Methoxy-pyridine-2-carboxylic acid [3-((R)-5-amino-3-methyl-3,6-dihydro-2H-[1,4]oxazin-3-yl)-phenyl]-amide hydrochloride], the IC50 was determined as 0.367 µM. In the case of `NC1=NC(CF)(c2cc(NC(=O)c3ncc(Cl)cc3Cl)ccc2F)COC1` (centres unmarked) [Example 88], the IC50 is 0.012 µM. `CC1(c2cccc(NC(=O)c3ccc(Br)cc3)c2)COCC(N)=N1` (centres unmarked) [Example 24, N-[3-(5-Amino-3-methyl-3,6-dihydro-2H-[1,4]oxazin-3-yl)-phenyl]-4-bromo-benzamide hydrochloride] had an IC50 of 1.07 µM. With `CC1(c2cccc(NC(=O)c3cnc(-n4ccc(C(F)(F)F)n4)cn3)c2)COCC(N)=N1` (centres unmarked) [Example 15, 5-(3-Trifluoromethyl-pyrazol-1-yl)-pyrazine-2-carboxylic acid [3-(5-amino-3-methyl-3,6-dihydro-2H-[1,4]oxazin-3-yl)-phenyl]-amide hydrochloride], the IC50 stood at 6.59 µM. With `CC1(c2cc(NC(=O)c3ccc(Br)cn3)ccc2F)CN(c2cccnc2)C(=O)C(N)=N1` (centres unmarked) [Example 198, 5-Bromo-pyridine-2-carboxylic acid [3-(6-amino-2-methyl-5-oxo-4-pyridin-3-yl-2,3,4,5-tetrahydro-pyrazin-2-yl)-4-fluoro-phenyl]-amide hydrochloride], the IC50 turned out to be 0.009 µM. The molecule `NC1=NC(c2cccc(NC(=O)c3cnc(C(F)F)cn3)c2)(C(F)F)COC1` (centres unmarked) [Example 110] registered an IC50 of 3.55 µM.

On to `CC1(c2cccc(NC(=O)C3CCCCC3)c2)COCC(N)=N1` (centres unmarked) [Example 25, Cyclohexanecarboxylic acid [3-(5-amino-3-methyl-3,6-dihydro-2H-[1,4]oxazin-3-yl)-phenyl]-amide hydrochloride], for which the IC50 is over 10 µM. `Cc1cc(OCF)cnc1C(=O)Nc1ccc(F)c([C@]2(C(F)F)COCC(N)=N2)c1` [Example 177, 5-Fluoromethoxy-3-methyl-pyridine-2-carboxylic acid [3-((R)-5-amino-3-difluoromethyl-3,6-dihydro-2H-[1,4]oxazin-3-yl)-4-fluoro-phenyl]-amide hydrochloride] yielded an IC50 of 0.037 µM. `C[C@@]1(c2cc(NC(=O)c3ncc(Br)cn3)ccc2F)CO[C@@](C)(C(F)(F)F)C(N)=N1` [Example 71, 5-Bromo-pyrimidine-2-carboxylic acid [3-((3R,6R)-5-amino-3,6-dimethyl-6-trifluoromethyl-3,6-dihydro-2H-[1,4]oxazin-3-yl)-4-fluoro-phenyl]-amide hydrochloride] displayed an IC50 of 0.003 µM. As for `COCCOc1cnc(C(=O)Nc2ccc(F)c([C@]3(C(F)F)COCC(N)=N3)c2)c(F)c1` [Example 181, 3-Fluoro-5-(2-methoxy-ethoxy)-pyridine-2-carboxylic acid [3-((R)-5-amino-3-difluoromethyl-3,6-dihydro-2H-[1,4]oxazin-3-yl)-4-fluoro-phenyl]-amide hydrochloride], the figure is 6.08 µM; as for `NC1=NC(c2cccc(NC(=O)c3ccc(Br)cn3)c2)(C(F)F)COC1` (centres unmarked) [Example 34, 5-Bromo-pyridine-2-carboxylic acid [3-(5-amino-3-difluoromethyl-3,6-dihydro-2H-[1,4]oxazin-3-yl)-phenyl]-amide hydrochloride], 0.345 µM.

For `NC1=NC(c2cc(NC(=O)c3ccc(Br)cn3)ccc2F)(C(F)F)COC1` (centres unmarked) [Example 42, 5-Bromo-pyridine-2-carboxylic acid [3-(5-amino-3-difluoromethyl-3,6-dihydro-2H-[1,4]oxazin-3-yl)-4-fluoro-phenyl]-amide hydrochloride], inhibition was half-maximal at 0.053 µM (IC50). Molecule `CCn1ccnc1C(=O)Nc1ccc(F)c([C@]2(C(F)F)COCC(N)=N2)c1` [Example 166, 1-Ethyl-1H-imidazole-2-carboxylic acid [3-((R)-5-amino-3-difluoromethyl-3,6-dihydro-2H-[1,4]oxazin-3-yl)-4-fluoro-phenyl]-amide hydrochloride] returned an IC50 of 0.378 µM. In turn, `NC1=N[C@](CF)(c2cccc(NC(=O)c3ccc(Br)cn3)c2)COC1` [Example 33, 5-Bromo-pyridine-2-carboxylic acid [3-((R)-5-amino-3-fluoromethyl-3,6-dihydro-2H-[1,4]oxazin-3-yl)-phenyl]-amide] returned an IC50 of 0.09 µM. Molecule `NC1=NC(c2cccc(NC(=O)c3ccc(C(F)(F)F)cn3)c2)(C(F)F)COC1` (centres unmarked) [Example 39] returned an IC50 of 2.97 µM. `N#Cc1ccc(C(=O)Nc2ccc(F)c([C@]3(C(F)F)COCC(N)=N3)c2)nc1` [Example 112, 5-Cyano-pyridine-2-carboxylic acid [3-((R)-5-amino-3-difluoromethyl-3,6-dihydro-2H-[1,4]oxazin-3-yl)-4-fluoro-phenyl]-amide hydrochloride]: the midpoint of inhibition, the IC50, lay at 0.097 µM. As for `NC1=N[C@@](c2cc(NC(=O)c3ncc(OCF)cc3Cl)ccc2F)(C(F)F)COC1` [Example 184, 3-Chloro-5-fluoromethoxy-pyridine-2-carboxylic acid [3-((R)-5-amino-3-di-fluoromethyl-3,6-dihydro-2H-[1,4]oxazin-3-yl)-4-fluoro-phenyl]-amide hydrochloride], the IC50 turned out to be 0.047 µM.
